US9133158B2, “Bicyclic dihydroisoquinoline-1-one derivatives” (Hoffmann-La Roche Inc., priority 2011, dated 2015)

What was measured:
human CYP11B2 = biological target: T1, human CYP11B2 (Homo sapiens, UniProt P19099); assay: G-402 cellular enzyme assay, human CYP11B2 (aldosterone release, HTRF); assay type: cell-based; conditions: G-402 cells, 1 μM Deoxycorticosterone
T1 construct: expressed in transfected cells
T1 sequence (P19099 25-503): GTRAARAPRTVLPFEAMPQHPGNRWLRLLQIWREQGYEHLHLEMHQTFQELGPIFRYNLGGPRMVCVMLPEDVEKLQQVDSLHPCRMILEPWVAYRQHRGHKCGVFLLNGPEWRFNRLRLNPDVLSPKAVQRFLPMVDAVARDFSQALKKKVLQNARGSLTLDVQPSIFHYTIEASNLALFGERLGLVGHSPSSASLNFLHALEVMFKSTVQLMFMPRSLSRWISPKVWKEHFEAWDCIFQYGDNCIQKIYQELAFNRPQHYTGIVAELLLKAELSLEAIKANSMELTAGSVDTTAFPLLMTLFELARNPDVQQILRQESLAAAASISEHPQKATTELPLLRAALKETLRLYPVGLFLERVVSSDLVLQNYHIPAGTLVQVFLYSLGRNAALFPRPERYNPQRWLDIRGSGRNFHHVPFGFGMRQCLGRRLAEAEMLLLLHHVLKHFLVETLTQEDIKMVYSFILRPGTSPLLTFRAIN
In short: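 Stable G-402 transfectants; 16 h incubation with inhibitor plus substrate — CYP11B2: 1 μM deoxycorticosterone, aldosterone read; CYP11B1: 1 μM deoxycortisol, cortisol read. HTRF on supernatant. Medium DMEM/F12, 2.5% charcoal FCS. EC50 via MMF sigmoidal fit.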

human CYP11B1 = biological target: T2, human CYP11B1 (Homo sapiens, UniProt P15538); assay: G-402 cellular enzyme assay, human CYP11B1 (cortisol release, HTRF); assay type: cell-based; conditions: G-402 cells, 1 μM Deoxycortisol
T2 construct: expressed in transfected cells
T2 sequence (P15538 25-503): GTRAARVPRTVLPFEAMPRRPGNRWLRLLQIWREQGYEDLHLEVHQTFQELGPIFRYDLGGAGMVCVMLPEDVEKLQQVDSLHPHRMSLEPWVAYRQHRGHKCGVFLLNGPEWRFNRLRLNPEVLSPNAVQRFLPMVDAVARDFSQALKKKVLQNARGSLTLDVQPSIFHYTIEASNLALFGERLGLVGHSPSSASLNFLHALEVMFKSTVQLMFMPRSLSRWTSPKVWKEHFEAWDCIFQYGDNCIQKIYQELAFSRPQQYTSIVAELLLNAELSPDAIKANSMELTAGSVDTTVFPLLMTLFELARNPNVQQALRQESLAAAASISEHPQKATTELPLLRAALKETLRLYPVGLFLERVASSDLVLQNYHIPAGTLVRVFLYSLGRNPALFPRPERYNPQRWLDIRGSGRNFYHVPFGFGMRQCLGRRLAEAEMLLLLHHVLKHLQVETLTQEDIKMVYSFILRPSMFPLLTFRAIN
Text: Herein we identified the use of the G-402 cell line as a host cell to ectopically express (transiently or stably) enzymes of the CYP11 family. Specifically we developed stable G-402 cells expressing ectopically human CYP11B1, human CYP11B2, human CYP11A1, cynmolgus CYP11B1 or cynomolgus CYP11B2 enzyme activity. Importantly the identified cell line G-402 expresses co-factors (adrenodoxin and adrenodoxin reductase) important for the activity of the CYP11 family and no relevant enzyme activity of the CYP11 family (in comparison to H295R cells) was detected in these cells. Therefore the G-402 cell line is uniquely suited as a host cell for the ectopic expression of enzymes from the CYP11 family.
G-402 cells can be obtained from ATCC(CRL-1440) and were originally derived from a renal leiomyoblastoma.
The expression plasmids contain the ORF for either human/cyno CYP11B1 or CYP11B2 under the control of a suitable promoter (CMV-promoter) and a suitable resistance marker (neomycin). Using standard techniques the expression plasmid is transfected into G-402 cells and these cells are then selected for expressing the given resistance markers. Individual cell-clones are then selected and assessed for displaying the desired enzymatic activity using 11-Deoxycorticosterone (Cyp11B2) or 11-Deoxycortisol (Cyp11B1) as a substrate.
G-402 cells expressing CYP11 constructs were established as described above and maintained in McCoy's 5a Medium Modified, ATCC Catalog No. 30-2007 containing 10% FCS and 400 μg/ml G418 (Geneticin) at 37° C. under an atmosphere of 5% CO2/95% air.
Cellular enzyme assays were performed in DMEM/F12 medium containing 2.5% charcoal treated FCS and appropriate concentration of substrate (0.3-10 uM 11-Deoxycorticosterone, 11-Deoxycortisol or Corticosterone). For assaying enzymatic activity, cells were plated onto 96 well plates and incubated for 16 h. An aliquot of the supernatant is then transferred and analyzed for the concentration of the expected product (Aldosterone for CYP11B2; Cortisol for CYP11B1). The concentrations of these steroids can be determined using HTRF assays from CisBio analyzing either Aldosterone or Cortisol.
Inhibition of the release of produced steroids can be used as a measure of the respective enzyme inhibition by test compounds added during the cellular enzyme assay. The dose dependent inhibition of enzymatic activity by a compound is calculated by means of plotting added inhibitor concentrations (x-axes) vs. measured steroid/product level (y-axes). The inhibition is then calculated by fitting the following 4-parameter sigmoidal function (Morgan-Mercer-Flodin (MMF) model) to the raw data points using the least squares method:
[formula] wherein, A is the maximum y value, B is the EC50 factor determined using XLFit, C is the minimum y value and D is the slope value.
EC50 values for compounds claimed herein were tested with the G402-based assay system described. Cyp11B2 enzyme activity was tested in presence of 1 μM Deoxycorticosterone and variable amounts of inhibitors; Cyp11B1 enzyme activity was tested in presence of 1 μM Deoxycortisol and variable amounts of inhibitors.

Q: Which EC50 (human CYP11B2) does the source give for `O=C1c2ccc(Cl)cc2CCN1c1cncc(-c2cc(F)cc(F)c2)c1` [Example 233, 6-Chloro-2-[5-(3,5-difluoro-phenyl)-pyridin-3-yl]-3,4-dihydro-2H-isoquinolin-1-one] here?
A: The EC50 was 271 nM.

Q: What about the EC50 (human CYP11B1) of the same compound?
A: The EC50 was 21600 nM.

Q: How did the EC50 (human CYP11B2) turn out when `Cc1nc2ccccc2n1Cc1cncc(N2CCc3cc(Cl)ccc3C2=O)c1` [Example 181, 6-Chloro-2-[5-(2-methyl-benzoimidazol-1-ylmethyl)-pyridin-3-yl]-3,4-dihydro-2H-isoquinolin-1-one] was run?
A: The EC50 was 217 nM.

Q: And the EC50 (human CYP11B1)?
A: The EC50 was 1970 nM.

Q: Which results are given for `O=C1CCCN1Cc1cncc(N2Cc3cc(Cl)ccc3C2=O)c1` [Example 112, 5-Chloro-2-[5-(2-oxo-pyrrolidin-1-ylmethyl)-pyridin-3-yl]-2,3-dihydro-isoindol-1-one]?
A: EC50 (human CYP11B2): 674 nM; EC50 (human CYP11B1): 12000 nM

Q: With `CC(C)S(=O)(=O)NCc1cncc(N2CCc3cc(Cl)ccc3C2=O)c1` [Example 145, Propane-2-sulfonic acid [5-(6-chloro-1-oxo-3,4-dihydro-1H-isoquinolin-2-yl)-pyridin-3-ylmethyl]-amide] as the compound, how does the EC50 (human CYP11B2) read?
A: The EC50 was 1500 nM.

Q: What about the EC50 (human CYP11B1) of the same compound?
A: Its EC50 is 1900 nM.

Q: Which results are given for `O=C1c2ccc(Cl)cc2CCN1c1cncc(NS(=O)(=O)c2ccccc2)c1` [Example 219, N-[5-(6-Chloro-1-oxo-3,4-dihydro-1H-isoquinolin-2-yl)-pyridin-3-yl]-benzenesulfonamide]?
A: EC50 (human CYP11B2): 2220 nM; EC50 (human CYP11B1): 17600 nM

Q: How did the EC50 (human CYP11B2) turn out when `CCC(=O)N[C@@H]1CCCc2c1cncc2N1C(=O)c2ccc(Cl)cc2[C@@H]1C` (single isomer, unassigned) [Example 359, N-[(R or S)-4-((S or R)-5-Chloro-3-methyl-1-oxo-1,3-dihydro-isoindol-2-yl)-5,6,7,8-tetrahydro-isoquinolin-8-yl]-propionamide] was run?
A: Its EC50 is 6 nM.

Q: And the EC50 (human CYP11B1)?
A: Its EC50 is 411 nM.

Q: How did the EC50 (human CYP11B2) turn out when `CC1(C)c2cc(Cl)ccc2C(=O)N1c1cncc(CN2CCNC2=O)c1` [Example 411, 5-Chloro-3,3-dimethyl-2-[5-(2-oxo-imidazolidin-1-ylmethyl)-pyridin-3-yl]-2,3-dihydro-isoindol-1-one] was run?
A: Its EC50 is 19.6 nM.

Q: What about the EC50 (human CYP11B1) of the same compound?
A: Its EC50 is 772 nM.

Q: Which EC50 (human CYP11B2) does the source give for `CCC1c2ccc(Cl)cc2C(=O)N1c1cncc(F)c1` (single isomer, unassigned) [Example 307, (S or R)-6-Chloro-3-ethyl-2-(5-fluoro-pyridin-3-yl)-2,3-dihydro-isoindol-1-one] here?
A: Its EC50 is 389 nM.

Q: And the EC50 (human CYP11B1)?
A: The EC50 was 15400 nM.

Q: What does the source list for `CC1CN(c2cncc(F)c2)C(=O)c2ccc(Cl)cc21` (centres unmarked) [Example 106, 6-Chloro-2-(5-fluoro-pyridin-3-yl)-4-methyl-3,4-dihydro-2H-isoquinolin-1-one]?
A: EC50 (human CYP11B2): 516 nM; EC50 (human CYP11B1): 8560 nM

Q: For `CC(=O)N1CCC(c2cncc(N3C(=O)c4ccc(Cl)cc4C3(C)C)c2)C1` (centres unmarked) [Example 460, 2-[5-(1-Acetyl-pyrrolidin-3-yl)-pyridin-3-yl]-5-chloro-3,3-dimethyl-2,3-dihydro-isoindol-1-one], which EC50 (human CYP11B2) is on record?
A: The EC50 was 12.3 nM.

Q: What about the EC50 (human CYP11B1) of the same compound?
A: Its EC50 is 516 nM.

Q: With `CC1(C)c2cc(Cl)ccc2C(=O)N1c1cncc(N2CC[C@H](O)C2)c1` [Example 454, 5-Chloro-2-[5-((S)-3-hydroxy-pyrrolidin-1-yl)-pyridin-3-yl]-3,3-dimethyl-2,3-dihydro-isoindol-1-one] as the compound, how does the EC50 (human CYP11B2) read?
A: The EC50 was 6.6 nM.

Q: What about the EC50 (human CYP11B1) of the same compound?
A: Its EC50 is 62 nM.

Q: How did the EC50 (human CYP11B2) turn out when `CCC(=O)N[C@H]1CCCc2c1cncc2N1C(=O)c2ccc(Cl)cc2[C@H]1C` (single isomer, unassigned) [Example 360, N-[(S or R)-4-((R or S)-5-Chloro-3-methyl-1-oxo-1,3-dihydro-isoindol-2-yl)-5,6,7,8-tetrahydro-isoquinolin-8-yl]-propionamide] was run?
A: Its EC50 is 853 nM.

Q: And the EC50 (human CYP11B1)?
A: Its EC50 is 16100 nM.

Q: What does the source list for `O=C1c2ccc(Cl)cc2CCN1c1cncc(CN2CCC[C@@H]2CO)c1` [Example 150, 6-Chloro-2-[5-((R)-2-hydroxymethyl-pyrrolidin-1-ylmethyl)-pyridin-3-yl]-3,4-dihydro-2H-isoquinolin-1-one]?
A: EC50 (human CYP11B2): 227 nM; EC50 (human CYP11B1): 5320 nM

Q: How did the EC50 (human CYP11B2) turn out when `COc1cncc(N2C(=O)c3ccc(Cl)cc3C2(C)C)c1` [Example 130, 5-Chloro-2-(5-methoxy-pyridin-3-yl)-3,3-dimethyl-2,3-dihydro-isoindol-1-one] was run?
A: The EC50 was 15.5 nM.

Q: What about the EC50 (human CYP11B1) of the same compound?
A: The EC50 was 240 nM.

Q: For `O=C(Nc1cncc(N2CCc3cc(Cl)ccc3C2=O)c1)Nc1cccc(C(F)(F)F)c1` [Example 251, 1-[5-(6-Chloro-1-oxo-3,4-dihydro-1H-isoquinolin-2-yl)-pyridin-3-yl]-3-(3-trifluoromethyl-phenyl)-urea], which EC50 (human CYP11B2) is on record?
A: The EC50 was 5880 nM.

Q: What about the EC50 (human CYP11B1) of the same compound?
A: Its EC50 is 15800 nM.

Q: `COc1cncc(N2CCc3c(ccc(Cl)c3F)C2=O)c1` [Example 99, 6-Chloro-5-fluoro-2-(5-methoxy-pyridin-3-yl)-3,4-dihydro-2H-isoquinolin-1-one] was tested. Which EC50 (human CYP11B2) did it give?
A: Its EC50 is 901 nM.

Q: And the EC50 (human CYP11B1)?
A: The EC50 was 7270 nM.

Q: Which EC50 (human CYP11B2) does the source give for `NC1(c2cncc(N3CCc4cc(Cl)ccc4C3=O)c2)CC1` [Example 57, 2-[5-(1-Amino-cyclopropyl)-pyridin-3-yl]-6-chloro-3,4-dihydro-2H-isoquinolin-1-one] here?
A: Its EC50 is 1280 nM.

Q: What about the EC50 (human CYP11B1) of the same compound?
A: Its EC50 is 8000 nM.

Q: How did the EC50 (human CYP11B2) turn out when `O=C1c2ccc(Cl)cc2CCN1c1cncc(Cc2ccc(N3CCOCC3)nc2)c1` [Example 207, 6-Chloro-2-[5-(6-morpholin-4-yl-pyridin-3-ylmethyl)-pyridin-3-yl]-3,4-dihydro-2H-isoquinolin-1-one] was run?
A: Its EC50 is 2.8 nM.

Q: What about the EC50 (human CYP11B1) of the same compound?
A: Its EC50 is 18.2 nM.

Q: How did the EC50 (human CYP11B2) turn out when `CCC(=O)N[C@@H]1CCCc2c1cncc2N1C(=O)c2cc(Cl)ccc2[C@@H]1CC` (single isomer, unassigned) [Example 313, N-[(R or S)-4-((S or R)-5-Chloro-1-ethyl-3-oxo-1,3-dihydro-isoindol-2-yl)-5,6,7,8-tetrahydro-isoquinolin-8-yl]-propionamide] was run?
A: Its EC50 is 118 nM.

Q: What about the EC50 (human CYP11B1) of the same compound?
A: Its EC50 is 3540 nM.

Q: What does the source list for `CC[C@H]1c2cc(Cl)ccc2C(=O)N1c1cncc2c1CCC[C@H]2NS(C)(=O)=O` (single isomer, unassigned) [Example 350, N-[(R or S)-4-((S or R)-5-Chloro-3-ethyl-1-oxo-1,3-dihydro-isoindol-2-yl)-5,6,7,8-tetrahydro-isoquinolin-8-yl]-methanesulfonamide]?
A: EC50 (human CYP11B2): 59.4 nM; EC50 (human CYP11B1): 3680 nM

Q: What does the source list for `O=C1c2ccc(Cl)cc2CN1c1cncc2c1CCC[C@H]2O` [Example 341, 5-Chloro-2-((R)-8-hydroxy-5,6,7,8-tetrahydro-isoquinolin-4-yl)-2,3-dihydro-isoindol-1-one]?
A: EC50 (human CYP11B2): 32.1 nM; EC50 (human CYP11B1): 1680 nM

Q: What does the source list for `O=C1c2ccc(Cl)cc2CN1c1cncc(N2CCC[C@H]2CO)c1` [Example 136, 5-Chloro-2-[5-((S)-2-hydroxymethyl-pyrrolidin-1-yl)-pyridin-3-yl]-2,3-dihydro-isoindol-1-one]?
A: EC50 (human CYP11B2): 102 nM; EC50 (human CYP11B1): 2660 nM
